Measured values: patent US7476680B2, “Substituted heterocyclic compounds for treating multidrug resistance” (H. Lee Moffitt Cancer Center & Research Institute, Inc., priority 2000, dated 2009)

Columns and labels:
MDR1-ATPase = target: T1, MDR1-ATPase (Homo sapiens, UniProt P08183); experiment: MDR1 ATPase assay (substrate potential for MDR1); type: biochemical; conditions: isolated Sf9 cell membranes; for Ki: half-maximum inhibition of MDR1-ATPase stimulated by 30-40 micromolar verapamil
T1 construct: made in house; host or cells: Sf9 insect cells (baculovirus); isolated membranes
Excerpt: Method for Measuring Substrate Potential for MDR1 (MDR1 ATPase assay)
Recombinant baculovirus carrying the human MDR1 gene was generated and Sf9 cells infected with virus. The virus-infected cells were harvested and their membranes isolated. MDR1-ATPase activity of the isolated Sf9 cell membranes was estimated by measuring inorganic phosphate liberation as previously described (B. Sarkadi, J. Biol. Chem., 1992, 267:4854-4858). The differences between the ATPase activities measured in the absence and presence of 100 micromolar vanadate were determined as activity specific to MDR1. MDR modulator concentrations causing half-maximum activation (Ka) or half-maximum inhibition of the MDR1-ATPase stimulated by 30-40 micromolar verapamil (Ki) were determined.

NIH-MDR1-G185 cells = experiment: Fluorescent substrate accumulation assay (BODIPY-FL Taxol); type: cell-based; conditions: BODIPY-FL Taxol 500 nM, modulator 10 micromolar, 40 min at 37° C.; fluorescence with modulator / without modulator
Method: Fluorescent Substrate Accumulation Assay
NIH-MDR1-G185 cells (obtained from M. Gottesman, NIH) were harvested and resuspended in RPMI-1640 containing L-glutamine, 10% Cosmic Calf Serum and penicillin-streptomycin. Cell suspension aliquots of 175 microliters (1×10^5 cells) were added to individual wells of a 96 well microtiter plate and preincubated for 15 min at 37° C. with 20 microliters MDR modulator diluted in cell culture media to give a final concentration of 10 micromolar. Control wells received no modulating agent. BODIPY-FL Taxol (Molecular Probes, Eugene, Oreg.) was added to each well in 10 microliter aliquots to give a final concentration of 500 nM and cells were incubated for 40 min at 37° C. Cells were centrifuged at 100×g for 5 min at 4° C. and the cell pellet washed with 200 microliters cold PBS to remove fluorescent medium from wells. Cells were centrifuged once more, media removed, and cells resuspended in 200 microliters cold PBS. Fluorescence accumulation was measured in a fluorescence plate reader fitted with an excitation filter of 485 nm and an emission filter of 538 nm. BODIPY-FL taxol accumulation in the cells was calculated as follows: Accumulation Index=(fluorescence in NIH-MDR1-G185 cells in the presence of modulator)/(fluorescence in NIH-MDR1-G185 cells in absence of modulator)

[1] = concentration causing half-maximum activation of MDR1-ATPase

T1 sequence (P08183 whole entry): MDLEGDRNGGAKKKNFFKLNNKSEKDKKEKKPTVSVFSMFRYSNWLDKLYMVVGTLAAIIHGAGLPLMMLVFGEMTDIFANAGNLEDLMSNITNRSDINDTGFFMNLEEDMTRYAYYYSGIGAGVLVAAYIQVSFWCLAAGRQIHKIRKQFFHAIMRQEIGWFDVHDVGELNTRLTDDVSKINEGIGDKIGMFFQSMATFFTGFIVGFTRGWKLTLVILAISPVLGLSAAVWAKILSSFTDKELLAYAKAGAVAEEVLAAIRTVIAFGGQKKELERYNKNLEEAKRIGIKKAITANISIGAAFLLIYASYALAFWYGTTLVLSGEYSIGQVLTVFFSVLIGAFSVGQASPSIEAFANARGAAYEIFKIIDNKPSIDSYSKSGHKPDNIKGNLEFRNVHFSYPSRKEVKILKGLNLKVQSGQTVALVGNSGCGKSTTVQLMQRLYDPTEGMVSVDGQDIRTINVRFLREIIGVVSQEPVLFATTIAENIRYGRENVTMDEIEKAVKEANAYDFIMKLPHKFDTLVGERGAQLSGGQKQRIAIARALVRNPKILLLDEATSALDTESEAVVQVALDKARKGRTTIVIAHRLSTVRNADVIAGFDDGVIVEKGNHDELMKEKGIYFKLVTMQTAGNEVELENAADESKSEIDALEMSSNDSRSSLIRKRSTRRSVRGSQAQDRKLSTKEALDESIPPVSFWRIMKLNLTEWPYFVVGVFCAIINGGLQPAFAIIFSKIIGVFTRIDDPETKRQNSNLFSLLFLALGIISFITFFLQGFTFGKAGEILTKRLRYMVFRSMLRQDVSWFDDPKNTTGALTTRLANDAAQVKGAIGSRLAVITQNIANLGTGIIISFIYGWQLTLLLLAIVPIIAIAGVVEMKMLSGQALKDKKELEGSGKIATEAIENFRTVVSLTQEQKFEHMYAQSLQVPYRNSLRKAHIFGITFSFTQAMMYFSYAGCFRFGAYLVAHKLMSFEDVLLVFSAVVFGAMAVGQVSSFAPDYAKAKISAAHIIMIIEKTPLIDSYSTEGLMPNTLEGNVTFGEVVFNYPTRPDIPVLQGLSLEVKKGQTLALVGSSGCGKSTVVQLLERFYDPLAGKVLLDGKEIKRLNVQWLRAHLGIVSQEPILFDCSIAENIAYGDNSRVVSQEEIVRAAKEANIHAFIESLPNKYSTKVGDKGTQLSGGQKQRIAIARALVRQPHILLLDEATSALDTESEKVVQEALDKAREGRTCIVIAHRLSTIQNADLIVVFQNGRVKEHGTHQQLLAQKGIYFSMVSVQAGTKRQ

| Substrate Potential Ka(MDR1-ATPase) (MDR1-ATPase; [1]) | Ki (MDR1-ATPase) | EC50 (MDR1-ATPase; concentration causing half-maximum activation of MDR1-ATPase, read-out: Substrate Potential Ka(MDR1-ATPase)) | Molecule | Accumulation Index (NIH-MDR1-G185 cells) |
| --- | --- | --- | --- | --- |
| weak activation | > 50 µM | – | COc1cc(OC[C@H](O)CN2CCCC(C(=O)NC(CCCc3ccccc3)CCCc3ccccc3)C2)cc(OC)c1OC (stereo partly shown) [Example 15] | – |
| no activation | 0.5 µM | – | COc1cc(C(=O)C(=O)N2CCCC(C(=O)NC(CCCc3ccccc3)CCCc3ccccc3)C2)cc(OC)c1OC (stereo not shown) [Example 26, 1-(3,4,5-trimethoxyglyoxyl)-piperidine-3-carboxylic acid [4-phenyl-1-(3-phenyl-propyl)-butyl]-amide] | – |
| no activation | 0.3 µM | – | O=C(NC(CCCc1ccccc1)CCCc1ccccc1)C1CCN(C[C@@H](O)COc2cccc3ncccc23)CC1 [Example 5, (R)-1-[2-hydroxy-3-(quinolin-5-yloxy)-propyl]-piperidine-4-carboxylic acid [4-phenyl-1-(3-phenyl-propyl)-butyl]-amide] | – |
| – | – | – | (R)-1-[2-hydroxy-3-(quinolin-5-yloxy)-propyl]-piperidine-4-carboxylic acid [4-(3-pyridyl-1-(3-pyridyl-propyl)-butyl]-amide [Example 53] | 8 |
| no activation | 0.02 µM | – | O=C(NCCCCc1ccccc1)[C@H]1CN(C[C@@H](O)COc2cccc3ncccc23)CC[C@H]1C(=O)NCCCCc1ccccc1 (stereo in doubt) [Example 11, cis-(R)-1-[2-hydroxy-3-(quinolin-5-yloxy)-propyl]-piperidine-3,4-dicarboxylic acid bis-[(4-phenyl-butyl)-amide]] | – |
| no activation | 1 µM | – | O=C(C1CCN(C[C@@H](O)COc2cccc3ncccc23)CC1)N(Cc1ccccc1)Cc1ccccc1 [Example 36, (R)-1-[2-hydroxy-3-(quinolin-5-yloxy)-propyl]-piperidine-4-carboxylic acid dibenzyl amide] | – |
| no activation | 0.3 µM | – | O=C(NC(CCCc1ccccc1)CCCc1ccccc1)C1CCCN(C[C@@H](O)COc2cccc3ncccc23)C1 (stereo partly shown) [Example 14] | – |
| – | – | – | CC1(C(=O)NC(CCCc2ccccc2)CCCc2ccccc2)CCN(C[C@@H](O)COc2cccc3ncccc23)CC1 [Example 50, (R)-1-[2-hydroxy-3-(quinolin-5-yloxy)-propyl]-methylpiperidine-4-carboxylic acid [4-phenyl-1-(3-phenyl-propyl)-butyl]-amide] | 10 |
| – | 0.01 µM | 0.005 µM | O=C(NC1CCN(C[C@H](O)COc2cccc3ncccc23)CC1)C(CCCc1ccccc1)CCCc1ccccc1 (stereo in doubt) [Example 25, 5-phenyl-2-(3-phenyl-propyl)-pentanoic acid {1-[2-hydroxy-3-(quinolin-5-yloxy)-propyl]-piperidin-4-yl}-amide] | – |
